The values below are quoted from earlier work in patent US20230172916A1, “COMPOSITION COMPRISING AT LEAST ONE PROTOBERBERINE ALKALOID AND METHOD FOR MANUFACTURING SAME” (ELEONOR, priority 2020, published 2023).

Like-named read-outs stand apart in the source and are kept apart here.

The conditions of series [1]: scientific studies report; species not stated.
The conditions of series [2]: laboratory rats subjected to experiments.

Take `COc1ccc2cc3[n+](cc2c1OC)CCc1cc2c(cc1-3)OCO2` [berberine, 2,3-methylenedioxy-9,10-dimethoxy-protoberberine]: the bioavailability result in series [1] is given as “less than 5%”; in series [2] it was “about 0.68%”.
